Reference: ChEMBL document CHEMBL5154842, “Unique Carbazole-Oxadiazole Derivatives as New Potential Antibiotics for Combating Gram-Positive and -Negative Bacteria” (J Med Chem, 2022)
In brackets after ≈: the same amount, converted by molar mass. Activity calls are given as the source filed them. No cut-off for these calls is given here.

Tests used:
Staphylococcus aureus [1] = test: Antibacterial activity against methicillin-resistant Staphylococcus aureus N315 assessed as inhibition of bacterial growth incubated for 24 hrs by CLSI protocol based two fold serial dilution method; type: functional
Enterococcus faecalis = test: Antibacterial activity against Enterococcus faecalis assessed as inhibition of bacterial growth incubated for 24 hrs by CLSI protocol based two fold serial dilution method; type: functional
Staphylococcus aureus [2] = test: Antibacterial activity against Staphylococcus aureus assessed as inhibition of bacterial growth incubated for 24 hrs by CLSI protocol based two fold serial dilution method; type: functional
Staphylococcus aureus [3] = test: Antibacterial activity against Staphylococcus aureus 25923 assessed as inhibition of bacterial growth incubated for 24 hrs by CLSI protocol based two fold serial dilution method; type: functional
Staphylococcus aureus [4] = test: Antibacterial activity against Staphylococcus aureus 29213 assessed as inhibition of bacterial growth incubated for 24 hrs by CLSI protocol based two fold serial dilution method; type: functional
Klebsiella pneumoniae = test: Antibacterial activity against Klebsiella pneumonia assessed as inhibition of bacterial growth incubated for 24 hrs by CLSI protocol based two fold serial dilution method; type: functional
Escherichia coli [5] = test: Antibacterial activity against Escherichia coli assessed as inhibition of bacterial growth incubated for 24 hrs by CLSI protocol based two fold serial dilution method; type: functional
Escherichia coli [6] = test: Antibacterial activity against Escherichia coli 25922 assessed as inhibition of bacterial growth incubated for 24 hrs by CLSI protocol based two fold serial dilution method; type: functional
Pseudomonas aeruginosa [7] = test: Antibacterial activity against Pseudomonas aeruginosa assessed as inhibition of bacterial growth incubated for 24 hrs by CLSI protocol based two fold serial dilution method; type: functional
Pseudomonas aeruginosa [8] = test: Antibacterial activity against Pseudomonas aeruginosa ATCC 27853 assessed as inhibition of bacterial growth incubated for 24 hrs by CLSI protocol based two fold serial dilution method; type: functional
Acinetobacter baumannii = test: Antibacterial activity against Acinetobacter baumannii assessed as inhibition of bacterial growth incubated for 24 hrs by CLSI protocol based two fold serial dilution method; type: functional
Staphylococcus aureus [9] = test: Antibacterial activity against methicillin-resistant Staphylococcus aureus N315 assessed as inhibition of bacterial growth at 0.5 to 16 ug/ml measured after 24 hrs by microplate reader assay; type: functional, organism-based; details: dose 0.5-16 µg/ml
[10] = Hemolytic activity in human RBC assessed as hemolysis at 1 to 32 ug/ml measured after 60 mins by microplate reader assay relative to control; type: toxicity, cell-based, Erythrocyte; details: red blood cells (erythrocytes), at 1 to 32 µg/mL, dose 1-32 µg/ml, read-out: Activity
Staphylococcus aureus [11] = test: Antibacterial activity against methicillin-resistant Staphylococcus aureus N315 assessed as inhibition of bacterial growth at 0.25 to 64 ug/ml incubated for 24 hrs by Alamar blue assay; type: functional, organism-based; details: dose 0.25-64 µg/ml

With `CCn1cc(C(=O)O)c(=O)c2cc(F)c(N3CCNCC3)cc21` [NORFLOXACIN] the MIC (Staphylococcus aureus [1]) was 0.5 µg/mL (≈ 1.57 µM), the MIC (Enterococcus faecalis) was 2 µg/mL (≈ 6.26 µM) and the MIC (Staphylococcus aureus [2]) was 2 µg/mL (≈ 6.26 µM). The MIC (Staphylococcus aureus [3]) was 1 µg/mL (≈ 3.13 µM), the MIC (Staphylococcus aureus [4]) was 4 µg/mL (≈ 12.5 µM) and the MIC (Klebsiella pneumoniae) was 4 µg/mL (≈ 12.5 µM). The MIC (Escherichia coli [5]) was 0.25 µg/mL (≈ 0.783 µM), the MIC (Escherichia coli [6]) was 2 µg/mL (≈ 6.26 µM) and the MIC (Pseudomonas aeruginosa [7]) was 8 µg/mL (≈ 25.1 µM). The MIC (Pseudomonas aeruginosa [8]) was 128 µg/mL (≈ 401 µM) and the MIC (Acinetobacter baumannii) was 128 µg/mL (≈ 401 µM).

Compound `CC(C)=CCOc1cccc2c1c1ccccc1n2Cc1nnc(S)o1` has an MIC (Staphylococcus aureus [1]) of 1 µg/mL (≈ 2.74 µM), an MIC (Enterococcus faecalis) of 4 µg/mL (≈ 10.9 µM) and an MIC (Staphylococcus aureus [2]) of 256 µg/mL (≈ 700 µM). The MIC (Staphylococcus aureus [3]) was 4 µg/mL (≈ 10.9 µM), the MIC (Staphylococcus aureus [4]) was 4 µg/mL (≈ 10.9 µM) and the MIC (Klebsiella pneumoniae) was 4 µg/mL (≈ 10.9 µM). The MIC (Escherichia coli [5]) was 8 µg/mL (≈ 21.9 µM), the MIC (Escherichia coli [6]) was 4 µg/mL (≈ 10.9 µM) and the MIC (Pseudomonas aeruginosa [7]) was 256 µg/mL (≈ 700 µM). It also gave an MIC (Pseudomonas aeruginosa [8]) of 2 µg/mL (≈ 5.47 µM) and an MIC (Acinetobacter baumannii) of 8 µg/mL (≈ 21.9 µM).

With `CCCCCCCCCCCCOc1cccc2c1c1ccccc1n2Cc1nnc(S)o1` the MIC (Staphylococcus aureus [1]) was 256 µg/mL (≈ 550 µM), the MIC (Enterococcus faecalis) was 256 µg/mL (≈ 550 µM) and the MIC (Staphylococcus aureus [2]) was 256 µg/mL (≈ 550 µM). For the same compound, the MIC (Staphylococcus aureus [3]) was 256 µg/mL (≈ 550 µM), the MIC (Staphylococcus aureus [4]) was 128 µg/mL (≈ 275 µM) and the MIC (Klebsiella pneumoniae) was 256 µg/mL (≈ 550 µM). For the same compound, the MIC (Escherichia coli [5]) was 256 µg/mL (≈ 550 µM), the MIC (Escherichia coli [6]) was 256 µg/mL (≈ 550 µM) and the MIC (Pseudomonas aeruginosa [7]) was 256 µg/mL (≈ 550 µM). The MIC (Pseudomonas aeruginosa [8]) was 256 µg/mL (≈ 550 µM) and the MIC (Acinetobacter baumannii) was 256 µg/mL (≈ 550 µM).

With `Sc1nnc(COc2cccc3[nH]c4ccccc4c23)o1` the MIC (Staphylococcus aureus [1]) was 2 µg/mL (≈ 6.73 µM), the MIC (Enterococcus faecalis) was 2 µg/mL (≈ 6.73 µM) and the MIC (Staphylococcus aureus [2]) was 64 µg/mL (≈ 215 µM). The MIC (Staphylococcus aureus [3]) was 64 µg/mL (≈ 215 µM), the MIC (Staphylococcus aureus [4]) was 128 µg/mL (≈ 430 µM) and the MIC (Klebsiella pneumoniae) was 4 µg/mL (≈ 13.5 µM). It also gave an MIC (Escherichia coli [5]) of 1 µg/mL (≈ 3.36 µM), an MIC (Escherichia coli [6]) of 4 µg/mL (≈ 13.5 µM) and an MIC (Pseudomonas aeruginosa [7]) of 256 µg/mL (≈ 861 µM). For the same compound, the MIC (Pseudomonas aeruginosa [8]) was 64 µg/mL (≈ 215 µM) and the MIC (Acinetobacter baumannii) was 64 µg/mL (≈ 215 µM).

`CCOc1cccc2c1c1ccccc1n2Cc1nnc(S)o1` gave an MIC (Staphylococcus aureus [1]) of 1 µg/mL (≈ 3.07 µM), an MIC (Enterococcus faecalis) of 1 µg/mL (≈ 3.07 µM) and an MIC (Staphylococcus aureus [2]) of 64 µg/mL (≈ 197 µM). It also gave an MIC (Staphylococcus aureus [3]) of 16 µg/mL (≈ 49.2 µM), an MIC (Staphylococcus aureus [4]) of 0.5 µg/mL (≈ 1.54 µM) and an MIC (Klebsiella pneumoniae) of 32 µg/mL (≈ 98.3 µM). For the same compound, the MIC (Escherichia coli [5]) was 0.5 µg/mL (≈ 1.54 µM), the MIC (Escherichia coli [6]) was 0.25 µg/mL (≈ 0.768 µM) and the MIC (Pseudomonas aeruginosa [7]) was 256 µg/mL (≈ 787 µM). For the same compound, the MIC (Pseudomonas aeruginosa [8]) was 256 µg/mL (≈ 787 µM), the MIC (Acinetobacter baumannii) was 0.25 µg/mL (≈ 0.768 µM) and the Activity (Staphylococcus aureus [9]) was “Active”. For the same compound, the hemolysis at 1 h [10] was < 3% and the Activity (Staphylococcus aureus [11]) was “Active”.

In the case of `c1ccc2c(c1)[nH]c1cccc(OCc3nnn[nH]3)c12`, the MIC (Staphylococcus aureus [1]) is reported as 0.5 µg/mL (≈ 1.88 µM), the MIC (Enterococcus faecalis) is reported as 64 µg/mL (≈ 241 µM) and the MIC (Staphylococcus aureus [2]) is reported as 128 µg/mL (≈ 483 µM). For the same compound, the MIC (Staphylococcus aureus [3]) was 128 µg/mL (≈ 483 µM), the MIC (Staphylococcus aureus [4]) was 128 µg/mL (≈ 483 µM) and the MIC (Klebsiella pneumoniae) was 64 µg/mL (≈ 241 µM). It also gave an MIC (Escherichia coli [5]) of 128 µg/mL (≈ 483 µM), an MIC (Escherichia coli [6]) of 128 µg/mL (≈ 483 µM) and an MIC (Pseudomonas aeruginosa [7]) of 128 µg/mL (≈ 483 µM). The MIC (Pseudomonas aeruginosa [8]) was 0.5 µg/mL (≈ 1.88 µM) and the MIC (Acinetobacter baumannii) was 128 µg/mL (≈ 483 µM).

`Sc1nnc(COc2cccc3c2c2ccccc2n3Cc2nnc(S)o2)o1` gave an MIC (Staphylococcus aureus [1]) of 32 µg/mL (≈ 77.8 µM), an MIC (Enterococcus faecalis) of 32 µg/mL (≈ 77.8 µM) and an MIC (Staphylococcus aureus [2]) of 32 µg/mL (≈ 77.8 µM). For the same compound, the MIC (Staphylococcus aureus [3]) was 64 µg/mL (≈ 156 µM), the MIC (Staphylococcus aureus [4]) was 64 µg/mL (≈ 156 µM) and the MIC (Klebsiella pneumoniae) was 64 µg/mL (≈ 156 µM). The MIC (Escherichia coli [5]) was 32 µg/mL (≈ 77.8 µM), the MIC (Escherichia coli [6]) was 32 µg/mL (≈ 77.8 µM) and the MIC (Pseudomonas aeruginosa [7]) was 128 µg/mL (≈ 311 µM). The MIC (Pseudomonas aeruginosa [8]) was 128 µg/mL (≈ 311 µM) and the MIC (Acinetobacter baumannii) was 128 µg/mL (≈ 311 µM).
